Values of other authors as cited in patent US11826376B2, “Methods of treating heart failure with preserved ejection fraction employing dapagliflozin and compositions comprising the same” (AstraZeneca AB, priority 2018, dated 2023).

Columns and labels:
human renal SGLT2 = human renal SGLT2 (Homo sapiens, UniProt P31639); details: background statement, no data
human renal SGLT2, sequence (P31639 whole entry): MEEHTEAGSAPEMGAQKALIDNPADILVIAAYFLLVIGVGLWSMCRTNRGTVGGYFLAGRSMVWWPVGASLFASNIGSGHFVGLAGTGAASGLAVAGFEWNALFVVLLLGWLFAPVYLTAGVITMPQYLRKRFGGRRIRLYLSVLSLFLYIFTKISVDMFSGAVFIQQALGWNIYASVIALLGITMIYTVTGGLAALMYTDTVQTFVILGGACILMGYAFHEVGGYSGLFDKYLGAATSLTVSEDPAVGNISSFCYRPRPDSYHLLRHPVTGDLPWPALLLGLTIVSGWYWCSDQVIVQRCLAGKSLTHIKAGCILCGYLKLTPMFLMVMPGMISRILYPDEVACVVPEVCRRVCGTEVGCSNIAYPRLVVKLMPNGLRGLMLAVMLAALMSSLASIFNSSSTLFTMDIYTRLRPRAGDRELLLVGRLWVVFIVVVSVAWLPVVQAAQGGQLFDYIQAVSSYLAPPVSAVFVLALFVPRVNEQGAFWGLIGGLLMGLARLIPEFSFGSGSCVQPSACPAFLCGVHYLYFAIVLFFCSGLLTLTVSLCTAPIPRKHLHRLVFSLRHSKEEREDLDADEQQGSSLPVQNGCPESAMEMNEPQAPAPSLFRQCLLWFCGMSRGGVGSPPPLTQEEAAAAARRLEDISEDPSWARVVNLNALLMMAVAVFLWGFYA

CCOc1ccc(Cc2cc([C@@H]3O[C@H](CO)[C@@H](O)[C@H](O)[C@H]3O)ccc2Cl)cc1 [Dapagliflozin, dapagliflozin]
albuminuria (Shigiyama et al. 2017): reduce | arterial stiffness (Shigiyama et al. 2017): reduces | blood uric acid (Shigiyama et al. 2017): reduce | systolic blood pressure (Shigiyama et al. 2017): reduce | weight (Shigiyama et al. 2017): reduce | HbA1c (background statement): effectively lowers | risk of inducing hypoglycaemia (background statement): low risk | inhibitor of human renal SGLT2 (human renal SGLT2): potent, highly selective
